Where a name gives a salt, the structure may show the parent alone.
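Throughout, for SYK Tm-Shift: recombinant His-tagged protein made in Sf9 insect cells by baculovirus, in HEPES NaCl buffer, heated stepwise with fluorescence recorded at every temperature step.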

Chain of CAMK1D (Q8IU85 1-333): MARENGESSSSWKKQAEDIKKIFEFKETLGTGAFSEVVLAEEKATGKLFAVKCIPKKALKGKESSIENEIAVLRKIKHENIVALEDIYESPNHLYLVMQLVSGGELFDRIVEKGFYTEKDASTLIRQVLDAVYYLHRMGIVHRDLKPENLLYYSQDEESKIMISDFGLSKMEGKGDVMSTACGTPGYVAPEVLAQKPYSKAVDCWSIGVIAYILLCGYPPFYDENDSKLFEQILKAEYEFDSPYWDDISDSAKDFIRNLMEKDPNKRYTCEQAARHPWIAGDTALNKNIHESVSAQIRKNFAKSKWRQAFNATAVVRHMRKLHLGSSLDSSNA

The target of one assay is SYK (Homo sapiens (Human), UniProt P43405). Nature of the assay: Tm-Shift assay (thermal melting, SYPRO Orange). In kind it is binding.
Conditions: not given
`CN(C)S(=O)(=O)c1cc(Nc2nc(N3CCC[C@H](N)C3)ncc2C(N)=O)cc(C(C)(C)C)c1` [Example 105, (S)-2-(3-aminopiperidin-1-yl)-4-((3-(tert-butyl)-5-(N,N-dimethylsulfamoyl)phenyl)amino) pyrimidine-5-carboxamide]: the “SYK Tm-Shift” value was 1.3 °C.
Take `CN(C)C(=O)c1cc(Nc2nc(N3CCC[C@H](N)C3)ncc2C(N)=O)cc(C(C)(C)C)c1` [Example 27, (S)-2-(3-aminopiperidin-1-yl)-4-((3-(tert-butyl)-5-(dimethylcarbamoyl)phenyl)amino) pyrimidine-5-carboxamide]: the “SYK Tm-Shift” value was determined as 0.4 °C.
Same read-out and setting: in the case of `CC(C)(O)C1CN(C(=O)c2cccc(Nc3nc(N4CCC[C@H](N)C4)ncc3C(N)=O)c2)C1.Cl` [Example 37, (S)-2-(3-aminopiperidin-1-yl)-4-((3-(3-(2-hydroxypropan-2-yl)azetidine-1-carbonyl)phenyl)amino)pyrimidine-5-carboxamide hydrochloride] it was 5.0 °C; in that of `COC[C@H]1CCCN1C(=O)c1cccc(Nc2nc(N3CCC[C@H](N)C3)ncc2C(N)=O)c1.Cl` [Example 36, 2-((S)-3-aminopiperidin-1-yl)-4-((3-((R)-2-(methoxymethyl)pyrrolidine-1-carbonyl)phenyl)amino)pyrimidine-5-carboxamide hydrochloride], 1.4 °C; in that of `CC(C)(C)c1cc(Nc2nc(N3C[C@H](N)C[C@H](N)C3)ncc2C(N)=O)cc(C(C)(C)C)c1.Cl.Cl` [Example 11, 4-((3,5-di-tert-butylphenyl)amino)-2-((3S,5R)-3,5-diaminopiperidin-1-yl)pyrimidine-5-carboxamide dihydrochloride], −0.5 °C.
Still for that read-out and setting: in the case of `C[C@@H]1COC[C@H](C)N1C(=O)c1cccc(Nc2nc(N3CCC[C@H](N)C3)ncc2C(N)=O)c1.Cl` [Example 33, 2-((S)-3-aminopiperidin-1-yl)-4-((3-((3S,5R)-3,5-dimethylmorpholine-4-carbonyl)phenyl)amino)pyrimidine-5-carboxamide hydrochloride] it was 0.5 °C.
The same measure, in the same setting: in the case of `CN1CCN(C(=O)c2cccc(Nc3nc(N4CCC[C@H](N)C4)ncc3C(N)=O)c2)CC1=O.Cl` [Example 38, (S)-2-(3-aminopiperidin-1-yl)-4-((3-(4-methyl-3-oxopiperazine-1-carbonyl)phenyl)amino)pyrimidine-5-carboxamide hydrochloride] it was 3.4 °C.

Still in this assay, the particulars now being: compound 10 μM, protein 2 μM; ΔTm obs vs protein without ligand; triplicate.
`CC(C)(C)c1cc(Nc2nc(N3CCC[C@H](N)C3)ncc2C(N)=O)cc(C(=O)N2CCOCC2)c1` [Example 29, (S)-2-(3-aminopiperidin-1-yl)-4-((3-(tert-butyl)-5-(morpholine-4-carbonyl)phenyl)amino)pyrimidine-5-carboxamide]: the “SYK Tm-Shift” value was determined as 0.3 °C.
`Cc1cccc(C)c1-c1cc(Nc2nc(N3CCC[C@H](N)C3)ncc2C(N)=O)cc(C(=O)N2CCOCC2)c1` [Example 20, (S)-2-(3-aminopiperidin-1-yl)-4-((2′,6′-dimethyl-5-(morpholine-4-carbonyl)-[1,1′-biphenyl]-3-yl)amino)pyrimidine-5-carboxamide]: the “SYK Tm-Shift” value came out at 0.3 °C.
With `NC(=O)c1cnc(N2CCC[C@H](N)C2)nc1Nc1cccc(C(=O)N2CCOCC2)c1` [Example 24, (S)-2-(3-aminopiperidin-1-yl)-4-((3-(morpholine-4-carbonyl)phenyl)amino)pyrimidine-5-carboxamide], the “SYK Tm-Shift” value was 1.4 °C.
The same measure, in the same setting: in the case of `NC(=O)c1cnc(N2CCC[C@H](N)C2)nc1Nc1cc(C2CC2)cc(C2CC2)c1` [Example 53, (S)-2-(3-aminopiperidin-1-yl)-4-((3,5-dicyclopropylphenyl)amino)pyrimidine-5-carboxamide] it was 8.2 °C; in that of `C[C@@H]1CN(C(=O)c2cccc(Nc3nc(N4CCC[C@H](N)C4)ncc3C(N)=O)c2)C[C@H](C)O1` [Example 39, 2-((S)-3-aminopiperidin-1-yl)-4-((3-((2R,6S)-2,6-dimethylmorpholine-4-carbonyl)phenyl)amino)pyrimidine-5-carboxamide], 3.1 °C; in that of `CN(C)C(=O)c1cccc(Nc2nc(N3CCC[C@H](N)C3)ncc2C(N)=O)c1` [Example 23, (S)-2-(3-aminopiperidin-1-yl)-4-((3-(dimethylcarbamoyl)phenyl)amino)pyrimidine-5-carboxamide], 1.6 °C.
The same measure, in the same setting: for `CC(C)(C)c1cc(Nc2nc(N3CCC[C@H](N)C3)ncc2C(N)=O)ccn1` [Example 8, (S)-2-(3-aminopiperidin-1-yl)-4-((2-(tert-butyl)pyridin-4-yl)amino)pyrimidine-5-carboxamide] the value was 3.2 °C; for `CN(C)C(=O)c1cc(Nc2nc(N3CCC[C@H](N)C3)ncc2C(N)=O)cc(C(C)(C)C#N)c1` [Example 46, (S)-2-(3-aminopiperidin-1-yl)-4-((3-(2-cyanopropan-2-yl)-5-(dimethylcarbamoyl)phenyl)amino)pyrimidine-5-carboxamide], 0.5 °C; for `CC1(C)C(=O)Nc2ccc(Nc3nc(N4CCC[C@H](N)C4)ncc3C(N)=O)cc21` [Example 65, (S)-2-(3-aminopiperidin-1-yl)-4-((3,3-dimethyl-2-oxoindolin-5-yl)amino)pyrimidine-5-carboxamide], 0.3 °C.
Same read-out and setting: for `NC(=O)c1cnc(N2CCC[C@H](N)C2)nc1Nc1cc(C(=O)N2CCOCC2)cc(-c2ccccc2)c1` [Example 21, (S)-2-(3-aminopiperidin-1-yl)-4-((5-(morpholine-4-carbonyl)-[1,1′-biphenyl]-3-yl)amino)pyrimidine-5-carboxamide] the value was 0.3 °C; for `COc1ccc2c(c1)CN(C(=O)c1cccc(Nc3nc(N4CCC[C@H](N)C4)ncc3C(N)=O)c1)C2` [Example 35, (S)-2-(3-aminopiperidin-1-yl)-4-((3-(5-methoxyisoindoline-2-carbonyl)phenyl)amino)pyrimidine-5-carboxamide], 4.3 °C; for `NC(=O)c1cnc(N2CCC[C@H](N)C2)nc1Nc1cccc(C(=O)N2CCCCC2)c1` [Example 26, (S)-2-(3-aminopiperidin-1-yl)-4-((3-(piperidine-1-carbonyl)phenyl)amino)pyrimidine-5-carboxamide], 1.8 °C.
In the case of `Cc1ccccc1-c1cccc(Nc2nc(N3CCC[C@H](N)C3)ncc2C(N)=O)c1` [Example 10, (S)-2-(3-aminopiperidin-1-yl)-4-((2′-methyl-[1,1′-biphenyl]-3-yl)amino)pyrimidine-5-carboxamide], the “SYK Tm-Shift” value is 6.5 °C.
For the compound `CC(C)(C#N)c1cc(Nc2nc(N3CCC[C@H](N)C3)ncc2C(N)=O)cc(C(=O)N2CCOCC2)c1` [Example 48, (S)-2-(3-aminopiperidin-1-yl)-4-((3-(2-cyanopropane-2-yl)-5-(morpholine-4-carbonyl)phenyl)amino)pyrimidine-5-carboxamide], the “SYK Tm-Shift” value worked out at 0.5 °C.
Regarding `NC(=O)c1cnc(N2CCC[C@H](N)C2)nc1Nc1cc(C(=O)N2CCOCC2)cc(C(F)(F)F)c1` [Example 43, (S)-2-(3-aminopiperidin-1-yl)-4-((3-(morpholine-4-carbonyl)-5-(trifluoromethyl)phenyl)amino)pyrimidine-5-carboxamide], the “SYK Tm-Shift” value came out at 1.2 °C.
On the same count and under the same terms, for `CC(C)(C#N)c1cc(Nc2nc(N3CCC[C@H](N)C3)ncc2C(N)=O)cc(C(=O)N2CCCC2)c1` [Example 47, (S)-2-(3-aminopiperidin-1-yl)-4-((3-(2-cyanopropan-2-yl)-5-(pyrrolidine-1-carbonyl)phenyl)amino)pyrimidine-5-carboxamide] the value was 0.7 °C.
`CC(C)(O)c1cc(Nc2nc(N3CCC[C@H](N)C3)ncc2C(N)=O)cc(C(F)(F)F)c1` [Example 89, (S)-2-(3-aminopiperidin-1-yl)-4-((3-(2-hydroxypropan-2-yl)-5-(trifluoromethyl)phenyl)amino)pyrimidine-5-carboxamide]: the “SYK Tm-Shift” value came to 3.4 °C.
Still for that read-out and setting: for `CC(C)(O)c1cc(Nc2nc(N3CCC[C@H](N)C3)ncc2C(N)=O)cc(C(C)(C)O)c1` [Example 90, (S)-2-(3-aminopiperidin-1-yl)-4-((3,5-bis(2-hydroxypropan-2-yl)phenyl)amino) pyrimidi-ne-5-carboxamide] the value was 0.9 °C.

The next assay addresses CAMK1D (Homo sapiens (Human), UniProt Q8IU85). Nature of the assay: Tm-Shift assay (thermal melting, SYPRO Orange). In kind it is binding. Conditions: compound 10 μM, protein 2 μM; ΔTm obs vs protein without ligand; triplicate.
For `CN(C)S(=O)(=O)c1cc(Nc2nc(N3CCC[C@H](N)C3)ncc2C(N)=O)cc(C(C)(C)C)c1` [Example 105, (S)-2-(3-aminopiperidin-1-yl)-4-((3-(tert-butyl)-5-(N,N-dimethylsulfamoyl)phenyl)amino) pyrimidine-5-carboxamide], the “CAMK1d Tm-Shift” value worked out at 12.9 °C.
With `CN(C)C(=O)c1cc(Nc2nc(N3CCC[C@H](N)C3)ncc2C(N)=O)cc(C(C)(C)C)c1` [Example 27, (S)-2-(3-aminopiperidin-1-yl)-4-((3-(tert-butyl)-5-(dimethylcarbamoyl)phenyl)amino) pyrimidine-5-carboxamide], the “CAMK1d Tm-Shift” value worked out at 12.5 °C.

The same assay, now with this note: read-out: CAMK1d Tm-Shift.
`CC(C)(C)c1cccc(Nc2nc(N3CCCC(N)C3)ncc2C(N)=O)c1` (stereo not shown) [Example 1, 2-(3-aminopiperidin-1-yl)-4-((3-(tert-butyl)phenyl)amino)pyrimidine-5-carboxamide]: the ΔTm at 10 µM was found to be 10.6 °C.
Same read-out and setting: in the case of `CC(C)(C)c1cc(Nc2nc(N3CCC[C@H](N)C3)ncc2C(N)=O)cc(C(=O)N2CCOCC2)c1` [Example 29, (S)-2-(3-aminopiperidin-1-yl)-4-((3-(tert-butyl)-5-(morpholine-4-carbonyl)phenyl)amino)pyrimidine-5-carboxamide] it was 12.4 °C.
As to `COC1(c2cc(Nc3nc(N4CCC[C@H](N)C4)ncc3C(N)=O)cc(C(F)(F)F)c2)CC1` [Example 122, (S)-2-(3-aminopiperidin-1-yl)-4-((3-(1-methoxycyclopropyl)-5-(trifluoromethyl)phenyl)amino)pyrimidine-5-carboxamide], the ΔTm at 10 µM is -0.8 °C.
The same measure, in the same setting: for `CC(C)(C)c1cc(Nc2nc(N3CCCC(N)C3)ncc2C(N)=O)cc(C(C)(C)C)c1` (stereo not shown) [Example 2, 2-(3-aminopiperidin-1-yl)-4-((3,5-di-tert-butylphenyl)amino)pyrimidine-5-carboxamide] the value was 14 °C; for `CC(C)(C)c1cc(Nc2nc(N3CCC[C@H](N)C3)ncc2C(N)=O)cc(C(C)(C)C)c1` [Example 3, (S)-2-(3-aminopiperidin-1-yl)-4-((3,5-di-tert-butylphenyl)amino)pyrimidine-5-carboxamide], 13.4 °C.
`CC(C)(C#N)c1cccc(Nc2nc(N3CCC[C@H](N)C3)ncc2C(N)=O)c1` [Example 4, (S)-2-(3-aminopiperidin-1-yl)-4-((3-(2-cyanopropan-2-yl)phenyl)amino)pyrimidine-5-carboxamide]: the ΔTm at 10 µM was found to be 9 °C.
On the same count and under the same terms, in the case of `CC(C)(C)c1cc(Nc2nc(N3CCC[C@@H](N)C3)ncc2C(N)=O)cc(C(C)(C)C)c1` [Example 7, (R)-2-(3-aminopiperidin-1-yl)-4-((3,5-di-tert-butylphenyl)amino)pyrimidine-5-carboxamide hydrochloride] it was 10.6 °C.

The record behind these values is US11530193B2, “Kinase inhibitors” (The University of Manchester, priority 2018, dated 2022).
